Activity calls are given as the source filed them. The rule behind the calls is not given here.
Columns and labels:
Escherichia coli = test: Induction of DNA cleavage in Escherichia coli at 1 ug/ml after 2 hr by agarose gel electrophoretic analysis
HeLa = test: Cytotoxicity against Homo sapiens (human) HeLa cells by MTT assay; type: functional, cell-based
HEp-2 = test: Cytotoxicity against Homo sapiens (human) Hep2 cells by MTT assay; type: functional, cell-based
A549 = test: Cytotoxicity against Homo sapiens (human) A549 cells by MTT assay; type: functional, cell-based

Row | Compound | Activity (Escherichia coli) | IC50 (HeLa) [µM] | IC50 (HEp-2) [µM] | IC50 (A549) [µM]
1 | CC1=NNC(=O)C1C(c1c(-c2ccccc2)[nH]c2ccccc12)c1c(-c2ccccc2)[nH]c2ccc(Cl)cc12 (stereo not drawn) | Active | 29.8 | 41.7 | 31.3
2 | COc1cccc2c1C(=O)c1c(O)c3c(c(O)c1C2=O)C[C@@](O)(C(=O)CO)C[C@@H]3O[C@H]1C[C@H](N)[C@H](O)[C@H](C)O1 [DOXORUBICIN] |  | 0.71 |  | 
3 | COc1ccc2[nH]c(-c3ccccc3)c(C(c3c(-c4ccccc4)[nH]c4ccc(C)cc34)C3C(=O)NN=C3C)c2c1 (stereo not drawn) | Active | > 100 | 3.5 | 1.8
4 | COc1ccc2[nH]c(-c3ccccc3)c(C(c3c[nH]c4ccccc34)C3C(=O)NN=C3C)c2c1 (stereo not drawn) |  | 1.7 | 5.3 | 2.7
5 | CC1=NNC(=O)C1C(c1c(-c2ccccc2)[nH]c2ccccc12)c1c(-c2ccccc2)[nH]c2ccc(C)cc12 (stereo not drawn) |  | > 100 | > 100 | 22.1
6 | CC1=NNC(=O)C1C(c1c[nH]c2ccccc12)c1c(-c2ccccc2)[nH]c2ccc(C)cc12 (stereo not drawn) | Active | 2.4 | 3.2 | 1.3
7 | COc1ccc2[nH]c(-c3ccccc3)c(C(c3c(-c4ccccc4)[nH]c4ccc(Cl)cc34)C3C(=O)NN=C3C)c2c1 (stereo not drawn) | Active | 1.2 | 6.2 | 1.1
8 | CC1=NNC(=O)C1C(c1c[nH]c2ccccc12)c1c(-c2ccccc2)[nH]c2ccccc12 (stereo not drawn) |  | 7.7 | 6.7 | 5.5
9 | CC1=NNC(=O)C1C(c1c(-c2ccccc2)[nH]c2ccc(C)cc12)c1c(-c2ccccc2)[nH]c2ccc(Cl)cc12 (stereo not drawn) |  | > 100 | 32.4 | 35
10 | CC1=NNC(=O)C1C(c1c[nH]c2ccccc12)c1c(-c2ccccc2)[nH]c2ccc(Cl)cc12 (stereo not drawn) |  | 3.8 | > 100 | 1.6
11 | CC1=NNC(=O)C1C(c1c(-c2ccccc2)[nH]c2ccc(C)cc12)c1c(-c2ccccc2)[nH]c2ccc(C)cc12 (stereo not drawn) |  | 32.7 | > 100 | 37
12 | CC1=NNC(=O)C1C(c1c(-c2ccccc2)[nH]c2ccc(Cl)cc12)c1c(-c2ccccc2)[nH]c2ccc(Cl)cc12 (stereo not drawn) |  | 9.5 | 14.6 | 7
